The text below walks through data of article PMC7997579, “Synthetic Lethality in Pancreatic Cancer: Discovery of a New RAD51-BRCA2 Small Molecule Disruptor That Inhibits Homologous Recombination and Synergizes with Olaparib” (Journal of Medicinal Chemistry, 2020).

Like-named read-outs stand apart in the source and are kept apart here.

For data set [1], the system named is homologous recombination in BxPC3 cells. The arrangement: method as in PMID 30660828. The settings on record: earlier triazole; cited from earlier work.
The target of a further data set is T1, BRC4–RAD51 interaction (Homo sapiens, UniProt Q06609).
T1 construct: purchased Creative Biomart (RAD51); Life Technologies (BRC4 peptide)
T1 sequence (Q06609 1-339): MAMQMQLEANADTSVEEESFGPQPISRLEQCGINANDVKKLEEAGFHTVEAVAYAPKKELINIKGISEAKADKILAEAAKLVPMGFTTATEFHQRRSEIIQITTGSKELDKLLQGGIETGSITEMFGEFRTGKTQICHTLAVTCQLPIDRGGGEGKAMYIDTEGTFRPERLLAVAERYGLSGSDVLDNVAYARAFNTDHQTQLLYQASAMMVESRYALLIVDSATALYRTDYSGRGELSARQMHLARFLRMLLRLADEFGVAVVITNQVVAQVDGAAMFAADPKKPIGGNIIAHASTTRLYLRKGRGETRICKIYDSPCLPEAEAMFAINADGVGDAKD
The data set can be described thus: Competitive biochemical ELISA assay (biotinylated BRC4 peptide vs RAD51). The data set is classed as binding. On the procedure: To investigate the mechanism of action of the new dihydroquinolone pyrazoline derivatives, different biological assays were performed. As a primary screening, the ability of compounds 5d–57d to inhibit RAD51-BRCA2 interaction was investigated with a competitive biochemical ELISA assay against the parent compound 4d (Table 1). This assay is effective in evaluating the ability of new molecules to compete with BRC4 to bind to RAD51.[30] […] 18d–21d, 23d, 25d, 30d, and 31d were active at micromolar range, all very similar to the initial hit. […] The replacement of the aromatic ring A in combination with the substitution of the pyrazoline nitrogen with either propionyl or acetyl chain yielded compounds 33d–51d. […] As expected for PPI disruptors, the SARs of the new series of dihydroquinolone pyrazoline were rather complex to rationalize, with many cliffs and spikes that were difficult to understand. […] Accordingly, 4d, 12d, 18d, 20d–23d, 30d, 31d, 33d–36d, 39d, 45d, and 49d were submitted to cell-based study (Table 2).
Competitive ELISA screening assay using biotinylated BRC4 peptide to disrupt the BRC4–RAD51 interaction was performed by modifying the method described by Rajendra et al.[33] BRC4-biotinylated peptide (N-term biotin-[…] from Life Technologies) was used to coat 384-well plates (Nunc). After washing with PBS containing 0.05% Tween-20 (PBST) and blocking with the solution BSA 1% /PBST, overnight hybridization with human RAD51 protein (NP_002866 Creative Biomart, NY) was performed. Test compounds were added in dose response from 0.01 to 100 μM in triplicate with constant DMSO 1%. Antibody raised against RAD51 (Millipore) and HRP-secondary antibody staining to develop the 3,3′,5,5′-tetramethylbenzidine signal (Sigma) quenched with 1 M HCl was used as the assay readout. Colorimetric measure was read on a Victor5 (PerkinElmer) plate reader. BRC4 and Rad51 were included in the assay as positive control. Results were analyzed by using GraphPad software.
On the technique in general: In an ELISA, binding on a coated surface is turned into a signal by an enzyme label.

In data set [2] the test system is homologous recombination in BxPC3 cells. The data set can be described thus: Homologous recombination assay (two-plasmid recombination, real-time PCR). The class given is cell-based, human. To be noted: BxPC3; one or two doses in the range of the ELISA EC50; NDD = not dose-dependent. The source says: Our working hypothesis is that compounds disrupting RAD51-BRCA2 interaction should affect HR repair and increase the efficacy of PARPi in treating breast, ovarian, and pancreatic cancer. For its clinical relevance, pancreatic adenocarcinoma was selected as our final model for cell-based experiments, and BxPC3 cells were selected for a straightforward comparison with the previously reported triazole derivatives.[30],[31] BxPC3 is derived from a human adenocarcinoma that expresses fully functional BRCA2.[38] As shown in Table 2 and according to the rationale of our hypothesis, our preliminary screening consisted of verifying the efficacy of compounds in inhibiting cell HR and/or in increasing the antiproliferative effect of olaparib. […] HR activity was assessed by evaluating the recombination rate between two transfected plasmids, using a commercially available assay. […] As for the emissucinic acid-containing compounds (4d, 12d, 18d, 20d–23d, 30d, 31d), one of the reasons for their lower potency in cells might be the general poor permeability, likely related to the ionizable acid moiety. […] We then characterized 35d in additional biophysical and cell-based experiments.
Homologous recombination (HR) was assessed by using a commercially available assay (Norgen). This assay is based on cell transfection with two plasmids that, upon cell entry, recombine. The efficiency of HR can be assessed by real-time PCR, using primer mixtures included in the assay kit. Different primer mixtures allow one to discriminate between the original plasmid backbones and their recombination product.
BxPC3 cells (2 × 10^5 per well) were seeded in a 24-well plate and allowed to adhere overnight. Co-transfection with the two plasmids was performed in Lipofectamine 2000 (Invitrogen) according to the manufacturer’s instructions. During transfection (5 h), cells were exposed to different doses of RAD51-BRCA2 disruptors, dissolved in RPMI in the presence of 0.6% DMSO. After washing with PBS, cells were harvested, and DNA was isolated using Illustra Tissue and Cell Genomic Prep Mini Spin kit (GE Healthcare). Sample concentration was measured using an ONDA Nano Genius photometer. The efficiency of HR was assessed by real-time PCR, using 25 ng of template, the primer mixtures included in the assay kit and following the protocol indicated by the manufacturer. Data analysis was based on the ΔΔCt method: [recombination product/backbone plasmids]^treated versus [recombination product/backbone plasmids]^control.
Background: In qPCR the cycle at which signal appears reflects the starting amount.

Data set [3] in a line: Solubility (as observed in cell culture media / stated). The class given is physicochemical. The settings on record: cell culture media.
The test system of the next data set is Capan-1 cells. The data set can be described thus: Immunofluorescence of nuclear γ-H2AX foci (DNA damage). The class given is cell-based, human. To be noted: Capan-1, 48 h, 10 μM olaparib alone. As for the experimental part:
To evaluate DNA damage through γH2AX nuclear foci, BXPC3 and Capan1 cells were seeded on glass coverslips in 6-well tissue culture plate (2 × 10^5 cells/well) and allowed to adhere overnight. After 48 h treatment with olaparib (10 μM) or 35d (20 μM) given alone or in combination, cultures growing on coverslips were fixed and treated as described above. For this experiment, the used antibodies were a rabbit polyclonal anti-γH2AX (Abcam, 1:1000 in 5% BSA/PBS) and a secondary anti-rabbit rhodamine-labeled (Novus Biologicals, 1:1000 in 1% BSA/PBS). For both experiments, images were acquired using a Nikon fluorescent microscope equipped with filters for FITC, TRITC, and DAPI. The percentage of cells bearing nuclear foci was estimated by two independent observers, by analyzing 100–250 cells for each treatment sample.

[4] abbreviates: Table 2, compounds selected for cell-based study, read-out: EC50 ELISA.
The mark [5] stands for this setting: competition with BRC4 for RAD51, triplicate, ± standard deviation, NA = not active, racemic mixtures unless enantiomer named, read-out: EC50 (μM) on ELISA assay.

Consider `O=C(CSc1nnc(Cn2c(=O)sc3ccccc32)n1CCCc1ccccc1)NC1CCCCC1` [Compound 3], for which the HR inhibition in data set [1] is listed as no more than 40%.
For orientation: EC50 means the concentration at which the effect is half-maximal. In the case of `CCC(=O)N1N=C(c2c(-c3ccccc3)c3cc(Cl)ccc3[nH]c2=O)CC1c1ccc(Br)cc1` (stereo not drawn) [Compound 34d, 3-(5-(4-Bromophenyl)-1-propionyl-4,5-dihydro-1H-pyrazol-3-yl)-6-chloro-4-phenylquinolin-2(1H)-one], the EC50 at BRC4–RAD51 interaction (setting [4]) and at BRC4–RAD51 interaction (setting [5]) was 19 ± 1 µM in each case. Besides, the “HR inhibition (in words)” value in data set [2] is recorded as “HR inhibition = not present”. Moreover, the “solubility in cell culture media” value in data set [3] is on record as “poor solubility”.
Turning to `O=C(c1cc(Cc2n[nH]c(=O)c3ccccc23)ccc1F)N1CCN(C(=O)C2CC2)CC1` [olaparib], the “γ-H2AX labeling in nuclei” value with Capan-1 cells was “increased nuclear labeling”.
Take `CCn1ncc2cc(-c3ccc(C4CC(c5c(-c6ccccc6)c6cc(Cl)ccc6[nH]c5=O)=NN4C(=O)CCC(=O)O)cc3)ccc21` (stereo not drawn) [Compound 30d, 4-(3-(6-Chloro-2-oxo-4-phenyl-1,2-dihydroquinolin-3-yl)-5-(4-(1-ethyl-1H-indazol-5-yl)phenyl)-4,5-dihydro-1H-pyrazol-1-yl)-4-oxobutanoic Acid]: the EC50 on BRC4–RAD51 interaction (setting [4]) and on BRC4–RAD51 interaction (setting [5]) was 15 ± 3 µM each time. Further, in data set [3], the “solubility in cell culture media” value is reported as “poor solubility”.
